{
  "source": "patent US4871716A",
  "about": "“Magnetically responsive, hydrophilic microspheres for incorporation of therapeutic substances and methods of preparation thereof” (priority 1986, dated 1989)",
  "key": {"CD-1 mice": {"system": "CD-1 mice", "experiment": "Toxicity in CD-1 mice by i.p. injection", "type": "in vivo, CD-1 white female mice", "method": "(§1) CD-1 white female mice, 5-7 weeks of age, weighing 30-33 g were injected by the intraperitoneal (i.p.) route with AD at concentrations of 0.6 mg and 1.5 mg dissolved in 0.5 ml of sterile saline. A second group of animals were injected with AD-PGA(15%)-HSA/MS-Q with 0.6, 1.5, and 2.5 mg of bound AD. For each concentration of the free and bound drug, 5 mice were used. PGA(15%)-HSA/MS-Q without AD was used for a control group and injected in equivalent weight amounts. Animals were then observed over a two-month period and fatalities were recorded for each group and tabulated."}, "[1]": {"experiment": "Toxicity in CD-1 mice by i.p. injection", "type": "in vivo, CD-1 white female mice", "conditions": "mouse, in vivo, ip, 0.6 mg; 600 μg free AD; read-out: animals killed", "method": "as §1"}},
  "data": [
    {"smiles": "COc1cccc2c1C(=O)c1c(O)c3c(c(O)c1C2=O)C[C@@](O)(C(=O)CO)C[C@@H]3O[C@H]1C[C@H](N)[C@H](O)[C@H](C)O1", "note": "[AD, Adriamycin]", "values": [
      {"measurement": "Survival from Time of Administration", "setting": "CD-1 mice; AD 0.6 mg i.p. (free or bound), 7 days", "result": "5/5"},
      {"measurement": "Survival from Time of Administration", "setting": "CD-1 mice; AD 0.6 mg i.p. (free or bound), 14 days", "result": "1/5"},
      {"measurement": "Survival from Time of Administration", "setting": "CD-1 mice; AD 0.6 mg i.p. (free or bound), 21 days", "result": "1/5"},
      {"measurement": "Survival from Time of Administration", "setting": "CD-1 mice; AD 0.6 mg i.p. (free or bound), 28 days", "result": "1/5"},
      {"measurement": "Survival from Time of Administration", "setting": "CD-1 mice; AD 0.6 mg i.p. (free or bound), 35 days", "result": "1/5"},
      {"measurement": "Survival from Time of Administration", "setting": "CD-1 mice; AD 1.5 mg i.p. (free or bound), 7 days", "result": "5/5"},
      {"measurement": "Survival from Time of Administration", "setting": "CD-1 mice; AD 1.5 mg i.p. (free or bound), 14 days", "result": "0/5"},
      {"measurement": "ulcer development at site of injection", "setting": "CD-1 mice; i.p.", "result": "All animals treated with free AD developed these ulcers"},
      {"measurement": "mortality at 1460 h", "setting": "[1]", "result": "> 80", "unit": "%"}
    ]}
  ]
}
